# Measured values: ChEMBL document CHEMBL4304761, “Alkylsulfonamide-containing quinazoline derivatives as potent and orally bioavailable PI3Ks inhibitors” (Bioorg Med Chem, 2019)
# The source made the active and inactive calls. The calls are words filed in the database; no cut-off is given here.
# Columns and labels:
# MCF7 = test: Antiproliferative activity against human MCF7 cells harboring PIK3CA mutant E545K measured after 72 hrs by MTT assay; format: functional, cell-based; settings: MCF7, 72 h
# HCT-116 [1] = test: Antiproliferative activity against human HCT116 cells harboring PIK3CA mutant H1047R measured after 72 hrs by MTT assay; format: functional, cell-based; settings: HCT-116, 72 h
# [2] = biological target: T1, Phosphatidylinositol 4,5-bisphosphate 3-kinase catalytic subunit alpha isoform (Homo sapiens, UniProt P42336); test: Inhibition of PI3K alpha (unknown origin) using lipid substrate measured after 40 mins in presence of ATP by Kinase-Glo plus reagent based luminescence assay
# T1 sequence (P42336 whole entry, canonical isoform): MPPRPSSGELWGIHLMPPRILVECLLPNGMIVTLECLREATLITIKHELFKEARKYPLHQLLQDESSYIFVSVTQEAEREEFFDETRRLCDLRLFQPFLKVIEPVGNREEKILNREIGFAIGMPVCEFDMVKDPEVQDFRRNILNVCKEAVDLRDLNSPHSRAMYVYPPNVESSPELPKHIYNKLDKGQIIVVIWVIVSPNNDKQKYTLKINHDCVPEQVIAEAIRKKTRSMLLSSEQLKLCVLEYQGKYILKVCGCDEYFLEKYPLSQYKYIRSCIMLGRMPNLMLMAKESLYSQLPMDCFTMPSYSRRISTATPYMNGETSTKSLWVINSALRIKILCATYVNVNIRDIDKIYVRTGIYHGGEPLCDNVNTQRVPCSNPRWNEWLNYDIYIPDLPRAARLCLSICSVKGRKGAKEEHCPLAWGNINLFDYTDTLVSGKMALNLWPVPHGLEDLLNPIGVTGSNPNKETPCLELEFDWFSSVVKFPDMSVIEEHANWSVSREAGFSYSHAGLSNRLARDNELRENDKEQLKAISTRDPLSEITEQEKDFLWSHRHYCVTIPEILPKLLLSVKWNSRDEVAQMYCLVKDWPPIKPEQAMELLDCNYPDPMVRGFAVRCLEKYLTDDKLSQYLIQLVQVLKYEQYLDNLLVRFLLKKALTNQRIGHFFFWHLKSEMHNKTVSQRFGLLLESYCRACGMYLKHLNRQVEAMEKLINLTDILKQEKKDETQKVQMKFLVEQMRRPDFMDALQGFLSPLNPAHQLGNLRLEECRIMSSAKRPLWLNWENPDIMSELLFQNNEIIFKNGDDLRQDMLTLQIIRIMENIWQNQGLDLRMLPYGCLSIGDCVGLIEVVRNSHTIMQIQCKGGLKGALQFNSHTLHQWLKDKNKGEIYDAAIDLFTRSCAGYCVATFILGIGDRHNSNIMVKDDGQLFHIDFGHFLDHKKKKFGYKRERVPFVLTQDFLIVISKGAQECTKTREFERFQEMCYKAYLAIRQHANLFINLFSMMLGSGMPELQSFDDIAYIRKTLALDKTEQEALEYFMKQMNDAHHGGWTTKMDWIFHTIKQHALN
# SU-DHL-6 = test: Antiproliferative activity against human SUDHL6 cells measured after 72 hrs by CCK-8 assay; format: functional, cell-based; settings: SU-DHL-6, 72 h
# [3] = Inhibition of PI3K/AKT/mTOR signaling in human HCT116 cells assessed as decrease in AKT phosphorylation at S473 at 1 uM measured after 5 hrs by Western blot analysis; format: cell-based
# [4] = biological target: T2, Phosphatidylinositol 4,5-bisphosphate 3-kinase catalytic subunit delta isoform (Homo sapiens, UniProt O00329); test: Inhibition of PI3K delta (unknown origin) using lipid substrate measured after 40 mins in presence of ATP by Kinase-Glo plus reagent based luminescence assay
# T2 sequence (O00329 whole entry): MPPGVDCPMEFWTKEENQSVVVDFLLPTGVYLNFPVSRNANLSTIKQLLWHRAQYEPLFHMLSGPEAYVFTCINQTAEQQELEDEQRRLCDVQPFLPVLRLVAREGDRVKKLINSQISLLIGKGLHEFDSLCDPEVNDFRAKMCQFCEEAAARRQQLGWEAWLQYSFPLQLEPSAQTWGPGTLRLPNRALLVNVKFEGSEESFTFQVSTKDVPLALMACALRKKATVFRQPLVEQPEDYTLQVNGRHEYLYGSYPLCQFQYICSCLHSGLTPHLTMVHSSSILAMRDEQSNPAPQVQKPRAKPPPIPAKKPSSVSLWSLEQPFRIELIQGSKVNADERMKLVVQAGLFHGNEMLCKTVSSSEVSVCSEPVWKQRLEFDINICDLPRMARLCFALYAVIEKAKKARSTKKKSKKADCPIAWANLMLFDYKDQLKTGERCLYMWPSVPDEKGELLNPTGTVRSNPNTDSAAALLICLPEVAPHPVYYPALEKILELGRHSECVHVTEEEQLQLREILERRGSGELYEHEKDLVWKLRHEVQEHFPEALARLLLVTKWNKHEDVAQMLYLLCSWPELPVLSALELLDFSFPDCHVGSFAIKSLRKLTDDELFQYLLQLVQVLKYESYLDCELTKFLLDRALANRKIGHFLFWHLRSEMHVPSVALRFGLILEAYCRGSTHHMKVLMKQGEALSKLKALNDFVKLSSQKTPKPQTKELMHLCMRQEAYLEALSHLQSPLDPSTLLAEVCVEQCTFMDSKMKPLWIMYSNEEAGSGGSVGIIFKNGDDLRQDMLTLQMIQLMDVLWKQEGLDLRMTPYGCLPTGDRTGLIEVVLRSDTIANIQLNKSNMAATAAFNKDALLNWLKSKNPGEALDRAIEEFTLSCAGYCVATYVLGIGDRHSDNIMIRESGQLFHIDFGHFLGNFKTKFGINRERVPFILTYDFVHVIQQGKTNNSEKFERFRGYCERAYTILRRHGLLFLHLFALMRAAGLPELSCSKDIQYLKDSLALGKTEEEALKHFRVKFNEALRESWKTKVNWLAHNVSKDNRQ
# [5] = biological target: Phosphatidylinositol 4,5-bisphosphate 3-kinase catalytic subunit gamma isoform (Homo sapiens, UniProt P48736); test: Inhibition of PI3K gamma (unknown origin) using lipid substrate measured after 40 mins in presence of ATP by Kinase-Glo plus reagent based luminescence assay
# Sequence of Phosphatidylinositol 4,5-bisphosphate 3-kinase catalytic subunit gamma isoform (P48736 whole entry, canonical isoform): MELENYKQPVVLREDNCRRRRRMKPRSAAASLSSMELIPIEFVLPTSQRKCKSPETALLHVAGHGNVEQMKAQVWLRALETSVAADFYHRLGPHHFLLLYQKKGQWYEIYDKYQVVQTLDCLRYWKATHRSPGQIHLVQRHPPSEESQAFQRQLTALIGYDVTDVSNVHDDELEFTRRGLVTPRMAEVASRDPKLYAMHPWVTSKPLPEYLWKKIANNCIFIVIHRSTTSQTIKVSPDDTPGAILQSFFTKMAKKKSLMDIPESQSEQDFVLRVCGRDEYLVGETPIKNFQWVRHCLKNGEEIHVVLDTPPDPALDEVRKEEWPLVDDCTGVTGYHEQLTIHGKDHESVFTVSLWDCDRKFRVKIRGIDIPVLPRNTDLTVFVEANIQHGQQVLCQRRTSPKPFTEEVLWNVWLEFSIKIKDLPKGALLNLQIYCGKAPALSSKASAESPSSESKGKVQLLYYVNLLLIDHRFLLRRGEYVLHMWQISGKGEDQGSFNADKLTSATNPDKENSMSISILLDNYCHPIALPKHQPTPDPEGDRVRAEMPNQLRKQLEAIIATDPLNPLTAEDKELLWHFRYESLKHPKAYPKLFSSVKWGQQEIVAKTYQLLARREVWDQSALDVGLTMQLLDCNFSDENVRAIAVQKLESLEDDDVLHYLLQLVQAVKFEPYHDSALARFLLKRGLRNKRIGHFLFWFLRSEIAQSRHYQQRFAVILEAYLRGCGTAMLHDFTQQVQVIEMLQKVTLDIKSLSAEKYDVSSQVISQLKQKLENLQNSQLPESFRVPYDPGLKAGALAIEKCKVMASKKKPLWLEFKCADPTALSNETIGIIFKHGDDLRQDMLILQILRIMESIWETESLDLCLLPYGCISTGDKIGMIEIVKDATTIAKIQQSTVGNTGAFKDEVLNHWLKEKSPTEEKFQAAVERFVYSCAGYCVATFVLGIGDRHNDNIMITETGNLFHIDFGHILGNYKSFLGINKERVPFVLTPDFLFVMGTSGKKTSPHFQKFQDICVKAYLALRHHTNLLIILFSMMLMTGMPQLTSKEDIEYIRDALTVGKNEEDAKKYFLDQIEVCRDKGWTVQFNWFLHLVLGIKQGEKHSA
# Homo sapiens [6] = organism: Homo sapiens; test: Selectivity ratio of IC50 for inhibition of PI3K gamma (unknown origin) to IC50 for inhibition of PI3K alpha (unknown origin)
# Homo sapiens [7] = organism: Homo sapiens; test: Selectivity ratio of IC50 for inhibition of PI3K beta (unknown origin) to IC50 for inhibition of PI3K alpha (unknown origin)
# Homo sapiens [8] = organism: Homo sapiens; test: Selectivity ratio of IC50 for inhibition of PI3K delta (unknown origin) to IC50 for inhibition of PI3K alpha (unknown origin)
# [9] = biological target: Phosphatidylinositol 4,5-bisphosphate 3-kinase catalytic subunit beta isoform (Homo sapiens, UniProt P42338); test: Inhibition of PI3K beta (unknown origin) using lipid substrate measured after 40 mins in presence of ATP by Kinase-Glo plus reagent based luminescence assay
# Sequence of Phosphatidylinositol 4,5-bisphosphate 3-kinase catalytic subunit beta isoform (P42338 whole entry, canonical isoform): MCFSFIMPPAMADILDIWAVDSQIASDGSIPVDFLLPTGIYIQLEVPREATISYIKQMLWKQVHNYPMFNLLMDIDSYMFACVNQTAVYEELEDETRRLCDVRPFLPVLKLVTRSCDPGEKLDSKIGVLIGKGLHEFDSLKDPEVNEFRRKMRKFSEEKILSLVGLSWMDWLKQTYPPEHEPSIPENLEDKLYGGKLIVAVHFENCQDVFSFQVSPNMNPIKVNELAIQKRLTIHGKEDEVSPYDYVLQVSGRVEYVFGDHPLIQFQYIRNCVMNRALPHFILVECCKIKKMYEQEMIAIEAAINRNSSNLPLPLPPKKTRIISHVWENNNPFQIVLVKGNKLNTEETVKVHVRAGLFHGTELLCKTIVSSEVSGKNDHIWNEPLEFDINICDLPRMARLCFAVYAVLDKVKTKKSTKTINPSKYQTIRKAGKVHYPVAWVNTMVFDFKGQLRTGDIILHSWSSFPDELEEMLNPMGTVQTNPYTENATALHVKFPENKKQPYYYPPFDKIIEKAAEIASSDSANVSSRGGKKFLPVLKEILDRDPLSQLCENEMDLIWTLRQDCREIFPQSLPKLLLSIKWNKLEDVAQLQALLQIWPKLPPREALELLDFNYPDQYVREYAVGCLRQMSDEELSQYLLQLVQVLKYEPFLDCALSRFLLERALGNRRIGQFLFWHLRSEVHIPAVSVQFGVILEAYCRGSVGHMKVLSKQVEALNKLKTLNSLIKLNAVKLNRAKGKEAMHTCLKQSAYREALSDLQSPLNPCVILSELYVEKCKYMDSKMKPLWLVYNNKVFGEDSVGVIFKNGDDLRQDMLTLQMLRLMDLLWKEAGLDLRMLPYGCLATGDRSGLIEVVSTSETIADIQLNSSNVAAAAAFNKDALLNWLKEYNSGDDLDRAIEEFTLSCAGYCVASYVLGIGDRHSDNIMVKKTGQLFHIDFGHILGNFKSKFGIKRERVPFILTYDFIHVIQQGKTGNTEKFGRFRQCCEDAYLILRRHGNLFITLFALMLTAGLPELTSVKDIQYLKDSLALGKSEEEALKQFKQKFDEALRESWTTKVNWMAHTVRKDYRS
# [10] = Toxicity in BALB/c nude mouse xenografted with human HCT116 cells assessed as effect on body weight at 5 to 25 mg/kg, po via gavage administered once daily for 15 days; format: organism-based; settings: in vivo, 360 h
# HCT-116 [11] = test: Antitumour activity against human HCT116 cells xenografted in BALB/c nude mouse assessed as tumour growth inhibition at 25 mg/kg, po via gavage administered once daily for 15 days and measure every three days by caliper method relative to control; format: functional; settings: HCT-116, po, read-out: TGI
# HCT-116 [12] = test: Antitumour activity against human HCT116 cells xenografted in BALB/c nude mouse assessed as tumour growth inhibition at 5 mg/kg, po via gavage administered once daily for 15 days and measure every three days by caliper method relative to control; format: functional; settings: HCT-116, po, read-out: TGI
# [13] = biological target: T1, Phosphatidylinositol 4,5-bisphosphate 3-kinase catalytic subunit alpha isoform; test: Potency index, ratio of 2-methoxy-5-(4-(2-morpholinoethylamino)quinazolin-6-yl)nicotinonitrile IC50 to test compound IC50 for inhibition of PI3K alpha (unknown origin)
# HCT-116 [14] = test: Antitumour activity against human HCT116 cells xenografted in BALB/c nude mouse assessed as tumour volume at 25 mg/kg, po via gavage administered once daily for 15 days and measure every three days by caliper method (reference value: 2769 +/- 536 mm3); format: functional
# HCT-116 [15] = test: Antitumour activity against human HCT116 cells xenografted in BALB/c nude mouse assessed as tumour weight at 5 mg/kg, po via gavage administered once daily for 15 days and measure every three days by caliper method (reference value: 3.2 +/- 0.32 g); format: functional
# HCT-116 [16] = test: Antitumour activity against human HCT116 cells xenografted in BALB/c nude mouse assessed as tumour weight at 25 mg/kg, po via gavage administered once daily for 15 days and measure every three days by caliper method (reference value: 3.2 +/- 0.32 g); format: functional
# HCT-116 [17] = test: Antitumour activity against human HCT116 cells xenografted in BALB/c nude mouse assessed as tumour volume at 5 mg/kg, po via gavage administered once daily for 15 days and measure every three days by caliper method (reference value: 2769 +/- 536 mm3); format: functional
# [18] = Inhibition of PI3K/AKT/mTOR signaling in human HCT116 cells assessed as decrease in AKT phosphorylation at S473 measured after 5 hrs by Western blot analysis; format: cell-based
SMILES,IC50 (MCF7) [nM],IC50 (HCT-116 [1]) [nM],IC50 [2] [nM],IC50 (SU-DHL-6) [nM],also measured
COc1ncc(-c2ccc3ncnc(NCCN4CCCCC4)c3c2)cc1NS(C)(=O)=O,3700,1600,12,320,–
COc1ncc(-c2ccc3ncnc(NC4CCN(C(C)=O)CC4)c3c2)cc1NS(C)(=O)=O,16000,720,0.4,4300,–
COc1ncc(-c2ccc3ncnc(N[C@H]4CCN(C(=O)C(C)(C)C)C4)c3c2)cc1NS(C)(=O)=O,590,2000,2.6,7600,–
COc1ncc(-c2ccc3ncnc(N[C@H]4CCN(C(=O)OC(C)(C)C)C4)c3c2)cc1NS(C)(=O)=O,870,250,5.3,170,–
COc1ncc(-c2ccc3ncnc(NCCN4CCOCC4)c3c2)cc1NS(=O)(=O)C1CC1,1500,1900,7.1,330,–
COc1ncc(-c2ccc3ncnc(N(C)CCN(C)C)c3c2)cc1NS(C)(=O)=O,4700,5100,7.7,1700,–
COc1ncc(-c2ccc3ncnc(N[C@H]4CCN(C(=O)C5CCCC5)C4)c3c2)cc1NS(C)(=O)=O,2500,2100,2.3,770,–
COc1ncc(-c2ccc3ncnc(NC4CCN(C(=O)OC(C)(C)C)CC4)c3c2)cc1NS(C)(=O)=O,15000,1800,7,9700,–
COc1ncc(-c2ccc3ncnc(NCCN(C)C)c3c2)cc1NS(C)(=O)=O,10000,8700,7,1700,–
COc1ncc(-c2ccc3ncnc(NCCN4CCCCC4)c3c2)cc1NS(=O)(=O)C1CC1,3200,5800,34,410,–

# Second part, led by results:
IC50 (MCF7) [nM],IC50 (HCT-116 [1]) [nM],IC50 [2] [nM],IC50 (SU-DHL-6) [nM],SMILES,also measured
350,370,–,70,Cn1c(=O)n(-c2ccc(C(C)(C)C#N)cc2)c2c3cc(-c4cnc5ccccc5c4)ccc3ncc21 [DACTOLISIB],inhibition [3]: Active
88000,29000,106,≥ 100000,COc1ncc(-c2ccc3nccc(NCCN4CCOCC4)c3c2)cc1NS(C)(=O)=O,–
14000,290,0.5,≥ 100000,COc1ncc(-c2ccc3ncnc(N[C@H]4CCN(C(C)=O)C4)c3c2)cc1NS(C)(=O)=O,IC50 [4]: 6.8 nM; IC50 [5]: 4.3 nM; Ratio IC50 (Homo sapiens [6]): 10; Ratio IC50 (Homo sapiens [7]): 10; Ratio IC50 (Homo sapiens [8]): 10; IC50 [9]: 5 nM
4800,1700,0.7,1500,COc1ncc(-c2ccc3ncnc(N[C@H]4CCN(C(=O)C5CCOCC5)C4)c3c2)cc1NS(C)(=O)=O,IC50 [4]: 7.4 nM; IC50 [5]: 6.5 nM; Ratio IC50 (Homo sapiens [6]): 10; Ratio IC50 (Homo sapiens [7]): 10; Ratio IC50 (Homo sapiens [8]): 10; IC50 [9]: 5.6 nM
11000,1300,0.9,≥ 100000,COc1ncc(-c2ccc3ncnc(NC4CCNCC4)c3c2)cc1NS(C)(=O)=O,–
6000,2900,2.1,≥ 100000,COc1ncc(-c2ccc3ncnc(NC4CCN(C(=O)C5CCOCC5)CC4)c3c2)cc1NS(C)(=O)=O,–
3700,1000,1,3000,COc1ncc(-c2ccc3ncnc(N[C@H]4CCN(C(=O)C5CC5)C4)c3c2)cc1NS(C)(=O)=O,–
990,820,4.5,190,COc1ncc(-c2ccc3ncnc(NCCN4CCOCC4)c3c2)cc1NS(C)(=O)=O,Activity [10]: Non-Toxic; IC50 [4]: 2.2 nM; IC50 [5]: 6 nM; inhibition in vivo at 25 mg/kg (HCT-116 [11]): 62%; inhibition in vivo at 5 mg/kg (HCT-116 [12]): 53%; Ratio IC50 [13]: 100; Activity (HCT-116 [14]): 992 mm3; Activity (HCT-116 [15]): 2 g; Activity (HCT-116 [16]): 1.6 g; Activity (HCT-116 [17]): 1299 mm3; IC50 [9]: 16 nM; inhibition [18]: Dose-dependent effect
7900,2800,2.8,3300,COc1ncc(-c2ccc3ncnc(NC4CCN(C(=O)C5CCCC5)CC4)c3c2)cc1NS(C)(=O)=O,–
